Experimental data published in US20260317344A1, “EGFR INHIBITORS FOR TREATING DISEASE” (BLOSSOMHILL THERAPEUTICS, INC., priority 2023, published 2026).

Legend:
Assay type in all cases: cell-based
[1] = tested on: HCC827 cells; test: 5-Day CellTiter Glo (CTG) cell proliferation assay, HCC827; conditions: Homo sapiens; HCC827 cells (d746-750 EGFR), 5-day CTG proliferation, 120 hours; read-out: HCC827 IC50
Method in brief: (§1)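 Proliferation of EGFR-driven NSCLC cells was scored as CellTiter-Glo 2.0 luminescence after a 5-day (120 h) incubation with compounds in 9 doses. IC50 values came from the dose-response curves.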

[2] = tested on: BaF3 cells with engineered EGFR L858R/C797S; test: 3-Day CellTiter Glo (CTG) cell proliferation assay, BaF3 EGFR L858R/C797S; conditions: Mus musculus, 3-day CTG proliferation, 72 hours
Description: (§2) 3-DAY CellTiter Glo (CTG) Cell Proliferation Assays (BaF3 Cell Lines)
(§3) Cell proliferation assays were carried out in BaF3 cells engineered with EGFR mutations. BaF3 cells with engineered EGFR L858R/T790M/C797S, EGFR L858R/C797S, or EGFR d746-750/T790M transgene, one thousand cells/50 μL per well were seeded in white 384-well plate, followed by treatment with indicated compounds in a 9-dose dilution series using TECAN d300e liquid dispenser. Cells were incubated with compounds for 72 hours at 37° C. and 5% CO2. Cell proliferation was measured using CellTiter-Gbo 2.0 luciferase-based ATP detection assay (Promega, Madison, WI) at 18 μL per well following the manufacturer's protocol. Plates were then read on a TECAN Sparks multimode microplate reader. Data was analyzed using GraphPad Prism 9 (GraphiPad Software, San Diego, CA) to obtain IC50 values.

[3] = biological target: T1, pEGFR, PC-9 cells (d746-750 EGFR) (Homo sapiens, UniProt P00533, DEL746-750); test: Cellular EGFR phosphorylation assay (LANCE Ultra TR-FRET) in PC-9 cells; conditions: 4 hours at 37° C., read-out: PC-9 pEGFR IC50
T1 construct: pEGFR (Tyr1068) TR-FRET
Method in brief: (§4)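 Cells were treated with compound for 4 h at 37 °C as a 9-point, 3-fold titration; A431 cells were stimulated with 40 ng/mL EGF for the final 10 min. Phospho-EGFR (Tyr1068) in lysates was read by TR-FRET after 4-6 h antibody incubation, and IC50 values were fitted.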

[4] = biological target: T2, pEGFR, A431 cells (wildtype EGFR) (Homo sapiens, UniProt P00533); test: Cellular EGFR phosphorylation assay (LANCE Ultra TR-FRET) in A431 cells; conditions: 4 hours at 37° C., 40 ng/mL EGF for the final 10 minutes, read-out: A431 pEGFR IC50
T2 construct: pEGFR (Tyr1068) TR-FRET
Method in brief: as §4

[5] = tested on: BaF3 cells with engineered EGFR L858R/T790M/C797S; test: 3-Day CellTiter Glo (CTG) cell proliferation assay, BaF3 EGFR L858R/T790M/C797S; conditions: Mus musculus, 3-day CTG proliferation, 72 hours
Method in brief: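 Viability after 72 h compound exposure (9 concentrations, 37° C, 5% CO2) was measured as ATP luminescence with CellTiter-Glo 2.0 in EGFR-mutant-engineered BaF3 cells plated at one thousand cells per well. IC50 values obtained by curve fitting.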

[6] = tested on: NCI-H1975 cells; test: 5-Day CellTiter Glo (CTG) cell proliferation assay, NCI-H1975; conditions: Homo sapiens; NCI-H1975 cells (L858R/T790M EGFR), 5-day CTG proliferation, 120 hours; read-out: H1975 IC50
Method in brief: as §1

[7] = tested on: BaF3 cells with engineered EGFR d746-750/T790M; test: 3-Day CellTiter Glo (CTG) cell proliferation assay, BaF3 EGFR d746-750/T790M; conditions: Mus musculus; BaF3 EGFR d746-750/T790M cells, 3-day CTG proliferation, 72 hours
Description: as §2, §3

[8] = tested on: PC-9 cells; test: 5-Day CellTiter Glo (CTG) cell proliferation assay, PC-9; conditions: Homo sapiens; PC-9 cells (d746-750 EGFR), 5-day CTG proliferation, 120 hours; read-out: PC-9 IC50
Method in brief: as §1

[9] = biological target: T3, pEGFR, NCI-H1975 cells (L858R/T790M EGFR) (Homo sapiens, UniProt P00533, L858R/T790M); test: Cellular EGFR phosphorylation assay (LANCE Ultra TR-FRET) in NCI-H1975 cells; conditions: 4 hours at 37° C., read-out: H1975 pEGFR IC50
T3 construct: pEGFR (Tyr1068) TR-FRET
Method in brief: as §4

T2 sequence (P00533 25-1210): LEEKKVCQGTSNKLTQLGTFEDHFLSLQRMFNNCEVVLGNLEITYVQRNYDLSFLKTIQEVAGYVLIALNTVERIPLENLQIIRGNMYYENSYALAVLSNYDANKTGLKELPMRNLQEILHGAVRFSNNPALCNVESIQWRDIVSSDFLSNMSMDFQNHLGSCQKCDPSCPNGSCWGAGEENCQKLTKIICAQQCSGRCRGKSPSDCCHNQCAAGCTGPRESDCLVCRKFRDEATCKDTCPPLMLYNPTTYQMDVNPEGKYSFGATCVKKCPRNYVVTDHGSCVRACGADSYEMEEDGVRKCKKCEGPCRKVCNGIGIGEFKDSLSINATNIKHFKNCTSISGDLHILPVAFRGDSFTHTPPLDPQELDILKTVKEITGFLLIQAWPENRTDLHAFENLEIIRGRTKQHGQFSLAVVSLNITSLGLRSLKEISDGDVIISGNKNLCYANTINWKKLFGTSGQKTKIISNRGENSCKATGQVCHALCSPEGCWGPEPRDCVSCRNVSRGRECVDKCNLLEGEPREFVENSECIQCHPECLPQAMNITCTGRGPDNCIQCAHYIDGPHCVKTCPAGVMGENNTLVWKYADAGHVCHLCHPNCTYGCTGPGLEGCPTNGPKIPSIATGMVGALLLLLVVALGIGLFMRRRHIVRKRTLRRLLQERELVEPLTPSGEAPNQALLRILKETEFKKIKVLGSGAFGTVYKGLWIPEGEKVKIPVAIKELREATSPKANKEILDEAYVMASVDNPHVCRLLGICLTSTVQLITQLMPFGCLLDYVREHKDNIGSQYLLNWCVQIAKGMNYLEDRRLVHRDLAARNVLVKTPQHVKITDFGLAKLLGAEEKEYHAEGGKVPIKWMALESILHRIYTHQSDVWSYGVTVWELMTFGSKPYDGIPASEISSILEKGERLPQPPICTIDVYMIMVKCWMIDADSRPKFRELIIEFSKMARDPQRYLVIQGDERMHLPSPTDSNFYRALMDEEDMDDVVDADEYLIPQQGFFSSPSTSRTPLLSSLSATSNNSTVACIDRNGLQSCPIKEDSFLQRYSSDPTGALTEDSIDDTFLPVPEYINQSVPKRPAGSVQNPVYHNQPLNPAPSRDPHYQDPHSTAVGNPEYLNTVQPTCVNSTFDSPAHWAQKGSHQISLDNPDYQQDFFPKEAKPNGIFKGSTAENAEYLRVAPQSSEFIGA
T1 sequence (P00533 with tags, fused parts or gaps DEL746-750): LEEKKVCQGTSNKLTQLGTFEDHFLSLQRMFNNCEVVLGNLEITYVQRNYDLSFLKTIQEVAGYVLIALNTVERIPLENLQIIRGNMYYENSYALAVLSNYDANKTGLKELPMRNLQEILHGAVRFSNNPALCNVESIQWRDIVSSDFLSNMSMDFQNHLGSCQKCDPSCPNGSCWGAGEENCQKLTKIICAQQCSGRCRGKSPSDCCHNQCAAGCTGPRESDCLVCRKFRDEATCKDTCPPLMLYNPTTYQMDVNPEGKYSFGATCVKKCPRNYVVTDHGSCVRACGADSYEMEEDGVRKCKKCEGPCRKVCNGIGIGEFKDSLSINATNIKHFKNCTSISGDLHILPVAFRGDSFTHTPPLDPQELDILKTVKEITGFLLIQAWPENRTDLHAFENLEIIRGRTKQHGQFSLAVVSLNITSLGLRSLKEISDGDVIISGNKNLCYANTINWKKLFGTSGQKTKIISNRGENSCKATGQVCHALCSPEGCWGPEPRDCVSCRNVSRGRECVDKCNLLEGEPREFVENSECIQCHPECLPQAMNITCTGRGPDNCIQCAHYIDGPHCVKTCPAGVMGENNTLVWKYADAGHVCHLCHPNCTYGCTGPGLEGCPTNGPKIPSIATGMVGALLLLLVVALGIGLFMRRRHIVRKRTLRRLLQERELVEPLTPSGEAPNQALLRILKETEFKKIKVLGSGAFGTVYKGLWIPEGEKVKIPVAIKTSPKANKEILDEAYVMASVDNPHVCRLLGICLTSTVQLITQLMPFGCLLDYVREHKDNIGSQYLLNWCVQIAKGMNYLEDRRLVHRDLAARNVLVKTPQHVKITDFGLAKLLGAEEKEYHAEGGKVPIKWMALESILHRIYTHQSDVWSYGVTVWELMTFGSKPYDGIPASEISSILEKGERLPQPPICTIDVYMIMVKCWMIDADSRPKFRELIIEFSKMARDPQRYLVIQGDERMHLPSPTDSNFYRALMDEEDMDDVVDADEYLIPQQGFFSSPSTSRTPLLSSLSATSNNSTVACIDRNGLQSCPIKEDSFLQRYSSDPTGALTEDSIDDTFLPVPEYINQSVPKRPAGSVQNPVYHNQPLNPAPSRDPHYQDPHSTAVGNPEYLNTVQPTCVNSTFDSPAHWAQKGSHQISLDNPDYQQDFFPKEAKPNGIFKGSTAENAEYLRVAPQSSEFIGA
T3 sequence (P00533 25-1210 T790M/L858R): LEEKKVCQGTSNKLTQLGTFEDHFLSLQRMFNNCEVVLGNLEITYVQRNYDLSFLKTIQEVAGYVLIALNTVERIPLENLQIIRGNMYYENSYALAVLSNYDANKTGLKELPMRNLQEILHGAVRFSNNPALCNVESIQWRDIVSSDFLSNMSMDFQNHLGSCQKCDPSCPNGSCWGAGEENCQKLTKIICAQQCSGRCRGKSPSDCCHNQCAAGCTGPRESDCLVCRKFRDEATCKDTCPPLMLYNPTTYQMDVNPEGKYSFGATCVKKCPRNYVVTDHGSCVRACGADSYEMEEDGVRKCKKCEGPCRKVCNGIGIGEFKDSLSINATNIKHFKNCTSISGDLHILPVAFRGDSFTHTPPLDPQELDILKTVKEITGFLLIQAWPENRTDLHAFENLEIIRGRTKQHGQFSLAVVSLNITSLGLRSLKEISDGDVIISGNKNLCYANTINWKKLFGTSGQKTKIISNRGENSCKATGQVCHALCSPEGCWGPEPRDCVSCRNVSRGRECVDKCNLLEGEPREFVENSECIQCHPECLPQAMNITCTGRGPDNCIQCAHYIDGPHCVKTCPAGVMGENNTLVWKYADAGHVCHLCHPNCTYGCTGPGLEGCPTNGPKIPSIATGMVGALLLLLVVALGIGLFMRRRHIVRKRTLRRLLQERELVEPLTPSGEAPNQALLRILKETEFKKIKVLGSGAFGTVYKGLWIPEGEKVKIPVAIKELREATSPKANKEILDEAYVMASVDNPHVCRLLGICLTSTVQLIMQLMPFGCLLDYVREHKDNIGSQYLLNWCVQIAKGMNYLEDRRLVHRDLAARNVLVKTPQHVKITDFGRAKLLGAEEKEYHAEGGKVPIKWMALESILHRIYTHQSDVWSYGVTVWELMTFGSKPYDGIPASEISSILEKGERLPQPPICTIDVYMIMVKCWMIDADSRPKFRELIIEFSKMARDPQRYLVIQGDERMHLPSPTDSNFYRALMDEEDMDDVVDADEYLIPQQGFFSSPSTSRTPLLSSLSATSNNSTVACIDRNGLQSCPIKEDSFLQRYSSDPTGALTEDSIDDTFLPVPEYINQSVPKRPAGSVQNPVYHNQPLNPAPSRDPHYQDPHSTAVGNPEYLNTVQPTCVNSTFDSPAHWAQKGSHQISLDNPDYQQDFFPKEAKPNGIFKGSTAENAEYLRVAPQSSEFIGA

Row | Structure (SMILES) | IC50 [1] [nM] | IC50 [2] [nM] | IC50 [3] [nM] | IC50 [4] [nM] | IC50 [5] [nM] | IC50 [6] [nM] | IC50 [7] [nM] | IC50 [8] [nM] | IC50 [9] [nM]
1 | CCOc1nn(C[C@H](C)O)c2c1/C=C/c1n[nH]c3cnc(cc13)-c1c(C)nn(C)c1O[C@@H](C)CN(C)C2 [Ex. 86, (2S)-1-[(10S,17E)-16-ethoxy-6,8,10,12-tetramethyl-2,8,10,11,12,13-hexahydro-14H-5,3-(azenometheno)tripyrazolo[3,4-f:3′,4′-j:4″,3″-n][1,4]oxazacyclopentadecin-14-yl]propan-2-ol] | 0.3 | 0.04 | 1.09 | 7.67 | 0.54 | 1.11 | 0.69 | 0.68 | 1.57
2 | CCOc1nn([C@@H](C)CO)c2c1/C=C/c1n[nH]c3cnc(cc13)-c1c(C)nn(C)c1OC[C@@H](C)N(C1CC1)C2 [Ex. 111, (2S)-2-[(11R,17E)-12-cyclopropyl-16-ethoxy-6,8,11-trimethyl-2,8,10,11,12,13-hexahydro-14H-5,3-(azenometheno)tripyrazolo[3,4-f:3′,4′-j:4″,3″-n][1,4]oxazacyclopentadecin-14-yl]propan-1-ol] | 0.43 | 0.11 | 1.06 | 1.46 | 1.11 | 3.12 | 0.78 | 1.52 | 2.08
3 | CNc1nn([C@@H](C)CO)c2c1/C=C/c1n[nH]c3c(C)nc(cc13)-c1c(C)nn(C)c1O[C@@H](C)CN(C)C2 [Ex. 101, (2S)-2-[(10S,17E)-6,8,10,12,20-pentamethyl-16-(methylamino)-2,8,10,11,12,13-hexahydro-14H-5,3-(azenometheno)tripyrazolo[3,4-f:3′,4′-j:4″,3″-n][1,4]oxazacyclopentadecin-14-yl]propan-1-ol] | 1.05 | 0.2 | 4.17 | 34.7 | 1.37 | 3.6 | 4.36 | 8.86 | 2.68
4 | CCNc1nn([C@@H](C)CO)c2c1/C=C/c1n[nH]c3cnc(cc13)-c1c(C)nn(C)c1O[C@@H](C)CN(C)C2 [Ex. 93, (2S)-2-[(10S,17E)-16-(ethylamino)-6,8,10,12-tetramethyl-2,8,10,11,12,13-hexahydro-14H-5,3-(azenometheno)tripyrazolo[3,4-f:3′,4′-j:4″,3″-n][1,4]oxazacyclopentadecin-14-yl]propan-1-ol] | 0.51 | 0.13 | 2.05 | 19.6 | 1.65 | 2 | 1.8 | 1.98 | 3.54
5 | CCOc1nn(CCO)c2c1/C=C/c1n[nH]c3c(C)nc(cc13)-c1c(C)nn(C)c1O[C@@H](C)[C@H]1CCCN1C2 [Ex. 177, 2-[(8aR,9S,19E)-1-ethoxy-9,11,13,21-tetramethyl-7,8,8a,9,11,17-hexahydro-6H-14,16-(azenometheno)tripyrazolo[3,4-f:3′,4′-j:4″,3″-n]pyrrolo[2,1-c][1,4]oxazacyclopentadecin-3(4H)-yl]ethan-1-ol] | 0.39 | 0.07 | 1.01 | 8.86 | 0.97 | 2.6 | 0.88 | 1.43 | 1.38
6 | CCOc1nn([C@H](C)CO)c2c1/C=C/c1n[nH]c3cnc(cc13)-c1c(C)nn(C)c1O[C@H](C)CN(C)C2 [Ex. 89, (2R)-2-[(10R,17E)-16-ethoxy-6,8,10,12-tetramethyl-2,8,10,11,12,13-hexahydro-14H-5,3-(azenometheno)tripyrazolo[3,4-f:3′,4′-j:4″,3″-n][1,4]oxazacyclopentadecin-14-yl]propan-1-ol] | 11 | 3.84 | 16.1 | 34.3 | 20.8 | 125 | 43.3 | 35.3 | 48.1
7 | CCOc1nn([C@@H](C)CO)c2c1/C=C/c1n[nH]c3c(C)nc(cc13)-c1c(C)nn(C)c1O[C@@H](C)CNC2 [Ex. 91, (2S)-2-[(10S,17E)-16-ethoxy-6,8,10,20-tetramethyl-2,8,10,11,12,13-hexahydro-14H-5,3-(azenometheno)tripyrazolo[3,4-f:3′,4′-j:4″,3″-n][1,4]oxazacyclopentadecin-14-yl]propan-1-ol] | 16.8 | 9.29 | 69.5 | 34.8 | 17.2 | 57 | 45.7 | 63 | 21.3
8 | CCOc1nn([C@H](C)CO)c2c1/C=C/c1n[nH]c3cnc(cc13)-c1c(C)nn(C)c1O[C@@H](C)CN(C)C2 [Ex. 88, (2R)-2-[(10S,17E)-16-ethoxy-6,8,10,12-tetramethyl-2,8,10,11,12,13-hexahydro-14H-5,3-(azenometheno)tripyrazolo[3,4-f:3′,4′-j:4″,3″-n][1,4]oxazacyclopentadecin-14-yl]propan-1-ol] | 0.39 | 0.09 | 1.62 | 11 | 0.86 | 5.09 | 1.56 | 2.52 | 2.17
9 | CCOc1nn(CCO)c2c1/C=C/c1n[nH]c3cnc(cc13)-c1c(C)nn(C)c1OC[C@@H](C)N(C1CC1)C2 [Ex. 114, 2-[(11R,17E)-12-cyclopropyl-16-ethoxy-6,8,11-trimethyl-2,8,10,11,12,13-hexahydro-14H-5,3-(azenometheno)tripyrazolo[3,4-f:3′,4′-j:4″,3″-n][1,4]oxazacyclopentadecin-14-yl]ethan-1-ol] | 1.66 | 0.42 | 3.56 | 22.2 | 1.84 | 27.1 | 3.72 | 4.87 | 5.67
10 | CCOc1nn(CCO)c2c1/C=C/c1n[nH]c3c(C)nc(cc13)-c1c(C)nn(C)c1OCCN(C)C2 [Ex. 75, 2-[(17E)-16-ethoxy-6,8,12,20-tetramethyl-2,8,10,11,12,13-hexahydro-14H-5,3-(azenometheno)tripyrazolo[3,4-f:3′,4′-j:4″,3″-n][1,4]oxazacyclopentadecin-14-yl]ethan-1-ol] | 10.6 | 0.22 | 15 | 53.7 | 2.94 | 74 | 203 | 43.1 | 7.41
11 | Cc1nn(C)c2c1/C=C/c1n[nH]c3c(C)nc(cc13)-c1c(C)nn(C)c1O[C@@H](C)CN(C)C2 [Ex. 103, (10S,17E)-6,8,10,12,14,16,20-heptamethyl-2,10,11,12,13,14-hexahydro-8H-5,3-(azenometheno)tripyrazolo[3,4-f:3′,4′-j:4″,3″-n][1,4]oxazacyclopentadecine] | 2.13 | 0.56 | 9.78 | 13.4 | 1.87 | 11.2 | 13.6 | 9.94 | 3.44
